Series [1] relates to medulloblastoma cells. Kind of series: DMSO tolerance of medulloblastoma cells in hydrogel-cell constructs, 384-well plate. Format: cell-based, human. On the procedure: Unless noted otherwise, cell viability assays were performed in 384-well plates using the RealTime-Glo™ MT Cell Viability Assay from Promega. For each experiment two stock solutions were prepared. For the first solution, 50 mM HEPES (pH 7.4) buffer was mixed with 0.5 wt % MAX8 (5 mg MAX8 per mL buffer solution for a final 0.25 wt % MAX8 hydrogel construct). The second solution was a cell solution with 11×10^6 per mL of medulloblastoma cells in serum-free DMEM. The two stock solutions were thoroughly mixed 1:1 to create a cell/gel mixture and 4 μL of the mixture was added per well to a white 384 well assay plate (Corning) containing 41 μL culture medium per well. The cells were allowed to equilibrate for 24 hours before any luminescence was determined. […] The plate was incubated for 60 minutes at 37 C and the luminescence was measured using an Envision Multilevel Reader (Perkin Elmer).
Owing to its unique shear force properties, MAX8-medulloblastoma cell constructs were dispensed at room temperature into 384-well plates (2,000 cells in 4 μL of hydrogel) (Brandtech) with 50 μL of culture medium (DMEM with serum) using a BioTek microplate dispenser. […] 10 μL of the intermediate drug media was then added to the QC plates, and following 48 h of cell culture the cell viability was measured using RealTime-Glo and the previously described method.

Series [2] has as its system medulloblastoma cells. Kind of series: Treatment of MAX8-RGDS-encapsulated medulloblastoma cells and 2D monolayers with vismodegib, cell viability. Format: cell-based, human. To be noted: MAX8-RGDS 3D constructs vs 2D monolayers, 48 hours, FIG. 3B. On the procedure: Vismodegib was added into the surrounding tissue culture medium of MAX8 hydrogel-cell constructs after 24 hours of cell seeding at the indicated concentrations. To limit the exposure of cultured cells to dimethyl sulfoxide (DMSO) from stock solutions of test compounds, 3.5 μL of stock solution was diluted in 1 mL of culture medium and then 20 μL of this solution was added to each well using the Janus workstation (PerkinElmer). Following 48 hours of cell culture the cell viability was measured as previously described using RealTime-Glo with a final concentration of 1×.

Series [3] has as its system human medulloblastoma cells. Kind of series: RealTime-Glo cell viability of medulloblastoma cells encapsulated in MAX8 hydrogel-cell constructs. The class given is cell-based. How it is done: (§1) Human medulloblastoma cells were propagated in Dulbecco's […] Media (DMEM) supplemented with 10% fetal bovine serum and penicillin-streptomycin-glutamine at 37° C. and 5% CO2 using standard 2D cell culture protocols and tissue-culture treated plastic cell ware. For isolation of primary cerebellar granule precursor (CGP) cells, the cerebellum was dissected from P4-6 pups of C57BL/6 mice and dissociated into single cells using the Papain Dissociation System kit (Worthington Biochemical Corp, Freehold, N.J.). After filtering through a nylon mesh (70 μm pore size), the cells were briefly centrifuged and resuspended in Neurobasal medium supplemented with […] and B27.
In general and unless otherwise indicated, MAX8-cell constructs were prepared as 0.25 wt % MAX8 hydrogels. First, the peptide was dissolved in 50 mM HEPES buffer (pH 7.4) ([…] of hydrogel) and then an equal volume of single cell suspension in DMEM was added and gently mixed. Mixing the MAX8 solution with the culture medium triggers the intramolecular folding of the peptide, resulting in self-assembly into a hydrogel. For additional hydrogels with different concentrations of MAX8, the amount of peptide was adjusted but otherwise the same hydrogel assembly protocol was followed. The same procedures were followed when functionalized MAX8 was used to prepare hydrogel-cell constructs.
Unless noted otherwise, cell viability assays were performed in 384-well plates using the RealTime-Glo™ MT Cell Viability Assay from Promega. For each experiment two stock solutions were prepared. For the first solution, 50 mM HEPES (pH 7.4) buffer was mixed with 0.5 wt % MAX8 (5 mg MAX8 per mL buffer solution for a final 0.25 wt % MAX8 hydrogel construct). The second solution was a cell solution with 11×10^6 per mL of medulloblastoma cells in serum-free DMEM. The two stock solutions were thoroughly mixed 1:1 to create a cell/gel mixture and 4 μL of the mixture was added per well to a white 384 well assay plate (Corning) containing 41 μL culture medium per well. The cells were allowed to equilibrate for 24 hours before any luminescence was determined. 10× RealTime-Glo was added in 5 μL of media to each well already containing 45 μL to a final concentration of 1×. For cell viability assays in 96-well plates, the following volumes were used. 74 μL of DMEM cell media containing serum was added to each well, 16 μL of the previously mentioned 0.25 wt % MAX8 cell/gel construct was then added to each well. 10 μL of 10× RealTime-Glo was added to the wells for a final concentration of 1×. The plate was incubated for 60 minutes at 37 C and the luminescence was measured using an Envision Multilevel Reader (Perkin Elmer).

Series [4] deals with primary cerebellar granule precursors (CGPs). Kind of series: RealTime-Glo cell viability of primary cerebellar granule precursor cells encapsulated in MAX8. The class given is cell-based, C57BL/6 mice. To be noted: 0.5 wt % MAX8, RealTime-Glo, FIG. 2B. On the procedure: as §1
In general and unless otherwise indicated, MAX8-cell constructs were prepared as 0.25 wt % MAX8 hydrogels. First, the peptide was dissolved in 50 mM HEPES buffer (pH 7.4) ([…] of hydrogel) and then an equal volume of single cell suspension in DMEM was added and gently mixed. […]
Unless noted otherwise, cell viability assays were performed in 384-well plates using the RealTime-Glo™ MT Cell Viability Assay from Promega. […] The cells were allowed to equilibrate for 24 hours before any luminescence was determined. […] The plate was incubated for 60 minutes at 37 C and the luminescence was measured using an Envision Multilevel Reader (Perkin Elmer).

Series [5] can be described thus: Hydrogel material properties (oscillatory rheology, gelation). Format: physicochemical. How it is done: Rheology measurements were performed on an AR G2 rheometer (TA instruments) with a 20 mm stainless steel parallel plate geometry. […] Dynamic time sweep experiments (DTS) were performed to monitor the storage (G′) and loss (G″) modulus as a function of time (6 rad/s frequency, 0.2% strain) for 60 min. For shear-thinning experiments, the samples were subjected to 500 s^−1 steady-state shear for 60 s after which oscillatory measurement was performed at 6 rad/s frequency, 0.2% strain. Subsequently, recovery of the storage (G′) and loss (G″) modulus as a function of time was monitored for 30 min. Dynamic frequency (0.1-100 rad/s frequency, 1.0% strain) sweep experiments were performed to establish the frequency response of the samples. All measurements were performed in triplicates.

[6] abbreviates: 0.5 wt % hydrogel, RealTime-Glo, FIG. 2C.

Take `C[S+](C)[O-]` [DMSO, dimethyl sulfoxide]: in the series with medulloblastoma cells [1], the “DMSO concentration at which medulloblastoma cells were viable” value is given as “up to 1%”. As for `CS(=O)(=O)c1ccc(C(=O)Nc2ccc(Cl)c(-c3ccccn3)c2)c(Cl)c1` [vismodegib], the “sensitivity (dose response of cell viability), monolayers vs hydrogel cultures” value in the series with medulloblastoma cells [2] is “shift in dose response curves between monolayers and hydrogel cultures”. With “IKVAVVKVKVKVK-(V^DPPT)-KVEVKVKV-NH2 [MAX8-IKVAV]”, the “proliferation of medulloblastoma cells when compared to MAX8” value in series [3] (setting [6]) is “increased the proliferation”. For the compound “RGDSVKVKVKVK-(V^DPPT)-KVEVKVKV-NH2 [MAX8-RGDS]”, in series [3] (setting [6]), the “proliferation of medulloblastoma cells encapsulated in cell constructs, over native MAX8” value was 1.4 fold. On to VKVKVKVK-(V^DPPT)-KVEVKVKV-NH2 [MAX8], for which, in series [4], the “viability of primary CGPs within MAX8-cell constructs” value was “viable for several days”. The “stiffness of the hydrogel” value in series [5] (controllable by weight percent of the peptide) is “around 1000 Pa”. In addition, the gelation time entry in series [5] (room temperature, physiological salt concentration and pH) was “gelates within a minute”. Moreover, the “viability of medulloblastoma cells within MAX8-cell constructs” value in series [3] (0.25 or 0.5 wt % MAX8, RealTime-Glo, FIG. 2A) is listed as “viable for several days”. For the same compound, in series [3] (0.25 vs 0.5 wt % MAX8, FIG. 2A), the “cell proliferation as a function of MAX8 concentration” value was “cell proliferation decreased with increasing MAX8 concentrations”. As to “YIGSRVKVKVKVK-(V^DPPT)-KVEVKVKV-NH2 [MAX8-YIGSR]”, the “proliferation of medulloblastoma cells when compared to MAX8” value in series [3] (setting [6]) is reported as “increased the proliferation”.

(Values after patent publication US20180267019A1, “USE OF PEPTIDE HYDROGEL SCAFFOLDS FOR THREE-DIMENSIONAL THROUGHPUT DRUG DISCOVERY” (UNIVERSITY OF DELAWARE, priority 2015, published 2018).)
